According to article PMC4770092, “Subnanometre enzyme mechanics probed by single-molecule force spectroscopy” (Nature Communications, 2016):

How the values were obtained:
AdK 42-144 [1] = target: T1, AdK 42-144 (Aquifex aeolicus, UniProt O66490, INS42C/INS144C); test: single-molecule optical tweezers, lid closing/opening; type: binding; details: 50 mM Tris pH 7.5, 200 mM KCl; bisubstrate inhibitor
T1 construct: full length, Cys inserted between 42/43 and 144/145; N-terminal spacer MAAKGELSG, C-terminal spacer and His6 kept; synthetic gene in pET11a, E. coli BL21(DE3); DNA handles on Cys in trap assay

AdK 42-144 [2] = target: T1, AdK 42-144; test: single-molecule optical tweezers, AP5A competition assay; type: binding; details: 50 mM Tris pH 7.5, 200 mM KCl, about 10 pN load

T1 sequence (O66490 other isoform, or with tags, fused parts or gaps INS42C/INS144C): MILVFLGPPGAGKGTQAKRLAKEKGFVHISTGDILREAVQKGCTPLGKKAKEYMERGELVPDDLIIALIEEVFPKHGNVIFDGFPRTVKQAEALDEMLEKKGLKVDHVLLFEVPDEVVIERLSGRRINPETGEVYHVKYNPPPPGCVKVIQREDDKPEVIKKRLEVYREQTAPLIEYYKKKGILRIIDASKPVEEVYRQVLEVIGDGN

Compound	single-molecule optical tweezers, lid closing/opening (AdK 42-144 [1])	other results
Nc1ncnc2c1ncn2[C@@H]1O[C@H](COP(=O)(O)OP(=O)(O)OP(=O)(O)OP(=O)(O)OC[C@H]2O[C@@H](n3cnc4c(N)ncnc43)[C@H](O)[C@@H]2O)[C@@H](O)[C@H]1O [AP4A]	We found that AP4A induces full closing of AdK indistinguishable from AP5A	
Nc1ncnc2c1ncn2[C@@H]1O[C@H](COP(=O)(O)OP(=O)(O)O)[C@@H](O)[C@H]1O [ADP]		KD (AdK 42-144 [2]; Mg-ADP, AP5A competitor): nucleotides ADP (yellow), Mg-ADP (green) and Mg-ATP (blue)
Nc1ncnc2c1ncn2[C@@H]1O[C@H](COP(=O)(O)OP(=O)(O)OP(=O)(O)O)[C@@H](O)[C@H]1O [ATP]		KD (AdK 42-144 [2]; Mg-ATP, 1 μM AP5A competitor): nucleotides ADP (yellow), Mg-ADP (green) and Mg-ATP (blue)
Nc1ncnc2c1ncn2[C@@H]1O[C@H](COP(=O)(O)OP(=O)(O)OP(=O)(O)OP(=O)(O)OP(=O)(O)OP(=O)(O)OC[C@H]2O[C@@H](n3cnc4c(N)ncnc43)[C@H](O)[C@@H]2O)[C@@H](O)[C@H]1O [AP6A]	AP6A binds with the same affinity as AP5A despite its significantly reduced closing distance	
